Reference: patent US4294833A, “Substituted 4-hydroxy-isophthalic acid picolylamides having a pharmaceutical activity in thromboembolic disorders” (Societa Italo-Britannica, priority 1977, dated 1981)

Assays:
[1] = test system: blood coagulum; assay: Fibrinolytic activity, Fearnley method (lysis of blood coagulum in toto); assay type: in vivo; conditions: percent decrease of coagulum weight after 30 minutes at 37° C., 25 mg/kg intraperitoneal, rabbits; for fibrinolytic activity (percent decrease of coagulum weight) at 25 mg/kg: Oryctolagus cuniculus, ip, 0.5 h, read-out: fibrinolytic activity (FL)
In short: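 Fibrinolysis is expressed as percent loss of clot weight after 30 min at 37 °C, following 30 min on ice. The clots formed from 0.2 ml rabbit ear-vein blood in pH 7.4 phosphate buffer with thrombin (50 NIH units/ml solution). Samples were taken before and after an intraperitoneal dose of 25 mg/kg.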

[2] = test system: platelet aggregation induced by thrombin; assay: Platelet aggregation inhibitory activity in vivo (Born aggregometer), thrombin-induced; parameters: species or system New Zealand rabbits; conditions: dose for 50% inhibition of thrombin-induced aggregation curve, rabbits, intraperitoneal, blood 2, 4 and 6 hours after injection; for ED50: Oryctolagus cuniculus, Platelet, ip, read-out: platelet antiaggregant activity (AAP), DI50, Thrombin
In short: (§1)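 Born aggregometry with ADP or thrombin as inducer used citrated PRP, with PPP as blank, from anaesthetized rabbits dosed i.p. Sampling was pre-dose and at 2, 4 and 6 h. The value is the mg/kg dose giving 50% inhibition of the aggregation curve versus each rabbit's own pre-treatment control.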

[3] = test system: CaCl2-induced plasma coagulation; assay: Anticoagulant activity on PRP, Hartert's thromboelastograph; assay type: in vivo, New Zealand rabbits; conditions: percent increase of total time for coagulum formation (r+k) vs before treatment, 25 mg/kg intraperitoneal, rabbits; for change in vivo at 25 mg/kg: Oryctolagus cuniculus, ip, read-out: anticoagulant activity (AC)
In short: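 Thromboelastographic r+k index of PRP, clotted by adding 1.29% CaCl2, compared before and after treatment and expressed as percent increase. Each compound given intraperitoneally at 25 mg/kg.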

[4] = test system: male Swiss mice; assay: Acute toxicity, intraperitoneal; parameters: acute toxicity (LD50 / DL50): unit: mg/kg; conditions: mouse, in vivo
In short: (§2)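 Male Swiss mice (20±2 g), fasted 18 h with water ad libitum, were dosed intraperitoneally and observed for 7 days for symptoms and deaths. Preliminary LD50 (mg/kg) was obtained by graphic interpolation.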

[5] = test system: thrombin-induced coagulation of platelet rich plasma; assay: Antithrombin activity on PRP, Hartert's thromboelastograph; assay type: in vivo, New Zealand rabbits; conditions: percent decrease of index ma/[r+k] vs before treatment, 20 mg/kg intraperitoneal, rabbits; for inhibition in vivo at 20 mg/kg: Oryctolagus cuniculus, Platelet, ip
In short: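 Result is expressed as the percent reduction of the thromboelastographic index ma/(r+k) compared with the same index measured before treatment. Treatment was 20 mg/kg of compound i.p., followed by addition of thrombin (60 units, pH 7.4) to the platelet rich plasma.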

[6] = test system: platelet aggregation induced by ADP; assay: Platelet aggregation inhibitory activity in vivo (Born aggregometer), ADP-induced; parameters: species or system New Zealand rabbits; conditions: dose for 50% inhibition of ADP-induced aggregation curve, rabbits, intraperitoneal, blood 2, 4 and 6 hours after injection; for ED50: Oryctolagus cuniculus, Platelet, ip, read-out: platelet antiaggregant activity (AAP), DI50, ADP
In short: as §1

[7] = Acute toxicity, intraperitoneal; parameters: acute toxicity (LD50 / DL50): unit: mg/kg; conditions: mouse, in vivo, ip, male Swiss mice, intraperitoneal, 7 days observation; preliminary, by graphic interpolation; read-out: acute toxicity (LD50 / DL50)
In short: as §2

SMILES	fibrinolytic activity (FL) ([1]; 25 mg/kg)	platelet antiaggregant activity (AAP), DI50, Thrombin [2]	anticoagulant activity (AC) ([3]; 25 mg/kg)	acute toxicity (LD50 / DL50) ([4]; ip, 10080 min)	antithrombin activity (AT) ([5]; 20 mg/kg)	platelet antiaggregant activity (AAP), DI50, ADP [6]	fibrinolytic activity (percent decrease of coagulum weight) at 25 mg/kg [1] [%]	ED50 [2] [mg/kg]	change in vivo at 25 mg/kg [3] [%]	acute toxicity (in words) [4]	LD50 at 168 h [7] [mg/kg]	inhibition in vivo at 20 mg/kg [5] [%]	ED50 [6] [mg/kg]
CCC(C)(C)Oc1c(Cl)cc(C(=O)NCc2cccnc2)cc1C(=O)NCc1cccnc1 [Example 38]	19,3%	34,6 mg/kg	12,9%	322	22,0%	54,3 mg/kg	–	–	–	–	–	–	–
CCCCCCCCOc1ccc(C(=O)NCc2cccnc2)cc1C(=O)NCc1cccnc1 [Example 6]	–	–	–	–	–	–	36.4	19.4	16.9	the acute toxicity increases with an increasing number of carbon atoms in the substituent R"	187	45.4	25.9
CCCOc1ccc(C(=O)NCc2cccnc2)cc1C(=O)NCc1cccnc1 [Example 1]	–	–	–	–	–	–	32.4	19.3	21.5	the acute toxicity increases with an increasing number of carbon atoms in the substituent R"	600	38.6	27.5
CCCCCOc1ccc(C(=O)NCc2cccnc2)cc1C(=O)NCc1cccnc1 [Example 3]	–	–	–	–	–	–	36.2	17.5	27.4	the acute toxicity increases with an increasing number of carbon atoms in the substituent R"	380	43	25.3
CCCCOc1ccc(C(=O)NCc2cccnc2)cc1C(=O)NCc1cccnc1 [Example 2]	–	–	–	–	–	–	35.7	18.2	23.2	the acute toxicity increases with an increasing number of carbon atoms in the substituent R"	573	40.1	26.7
CCCCCCOc1ccc(C(=O)NCc2cccnc2)cc1C(=O)NCc1cccnc1 [Example 4]	–	–	–	–	–	–	41.3	17.3	19.5	the acute toxicity increases with an increasing number of carbon atoms in the substituent R"	175	47.6	22.9
CCCCCCCOc1ccc(C(=O)NCc2cccnc2)cc1C(=O)NCc1cccnc1 [Example 5]	–	–	–	–	–	–	38.8	18.1	18	the acute toxicity increases with an increasing number of carbon atoms in the substituent R"	181	46.5	24.6
